Laboratory results: patent publication US12201640B2, “19-nor C3,3-disubstituted C21-n-pyrazolyl steroids and methods of use thereof” (Sage Therapeutics, Inc., priority 2013, dated 2025)

Key:
[1] = tested on: male Sprague Dawley rats; test: Loss of righting reflex in rats; assay type: in vivo; conditions: Rat IV, 5 mpk
Method: Loss of Righting Reflex in Rats
The plasma pharmacokinetics and a qualitative assessment of sedation were obtained in male
Sprague Dawley rats according to the following procedure. Rats were dosed by intravenous bolus dose (60 seconds) via the foot dorsal vein at doses ranging from 5 to 15 mg/kg in an appropriate vehicle. In order to assess sedation, rats were gently restrained by hand to a lateral position for dose administration. […] If the animal was unable to return to an upright position, the time was recorded as the onset of loss of righting reflex (LRR). […] Sluggish or incomplete righting twice consecutively within a 30 second interval qualifies as a loss of righting reflex. After onset of LRR, animals were assessed every 5 minutes in the same manner. Recovery of righting reflex is defined as the ability of a rat to right itself completely within 20 seconds of being placed in dorsal recumbency. The duration of LRR is defined as the time interval between LRR and the return of righting reflex.

[2] = biological target: [35S]-TBPS binding, rat brain cortical membranes (GABA receptor complex); test: Steroid inhibition of [35S]-TBPS binding; conditions: 3 nM [35S]-TBPS, 5 μM GABA
[3] = tested on: PTZ-treated mice; test: Acute PTZ (pentylenetetrazol-induced seizure) assay in mice; assay type: in vivo, mouse; conditions: latency to tonic seizures
Method: The anticonvulsant effect of test compounds were assessed in the pentylenetetazol-induced seizure assay in mice similar to methods described in Giardina & Gasior (2009) Curr Protoc Pharmacol., Chapter 5. Male CD-1 mice were housed in groups of five under controlled conditions (temperature of 22±2° C. and 12:12 light-dark cycle, lights on at 8:00 am) and water and food were available ad libitum. The mice were housed for 1 week prior to behavioral testing, at which time they weighed 25-35 g. Pentylenetetrazol (PTZ, Sigma) was dissolved in sterile 0.9% saline at a concentration of 12 mg/mL concentration for subcutaneous administration. Test compounds were formulated and administered via oral gavage or intraperitoneal injection at a predetermined time-point (typically 30 or 60 minutes) prior to PTZ injection. All solutions were made fresh and were given in a volume of 10 ml/kg body weight.
Mice were acclimated to the test room for at least 30 min before compound administration. Mice were randomized into at least four test groups (vehicle and at least three doses of the test compound) with 10 mice per group. […] Following the drug pretreatment time the mice were injected s.c. with PTZ (120 mg/kg). Immediately following the PTZ injection, mice were individually placed into observation chambers (25×15×15 cm) and a three-channel timer was started. Each mouse was continuously observed for 30 min and the following behaviors were recorded by observers blinded to the treatments: 1) latency to clonic convulsions that persist for 3 sec and followed by an absence of righting reflex 2) latency to tonic convulsions, characterized by the rigid extension of all four limbs that exceeded a 90 degree angle with the body 3) latency to death 4) number of clonic and tonic convulsions. Data are presented as mean±S.E.M and one-way analysis of variance with Dunnett's or Bonferroni's post-hoc test was used to detect significant differences in latency and number between the vehicle and dose group. p values<0.05 were regarded as statistically significant.

Row | SMILES | Duration of Rat LRR [1] | IC50 [2] [µM] | Anticonvulsive Effect Dose (minimal effective anticonvulsant dose) ([3]; PO) | Anticonvulsive Effect Dose (minimal effective anticonvulsant dose) ([3]; IP)
1 | C[C@@]1(O)CC[C@H]2[C@H](CC[C@@H]3[C@@H]2CC[C@]2(C)[C@@H](C(=O)Cn4cc(C#N)cn4)CC[C@@H]32)C1 [SA-4] | C (>60 min) | < 0.01 | A (PO) (<3 mpk) | –
2 | Cc1cnn(CC(=O)[C@H]2CC[C@H]3[C@@H]4CC[C@@H]5C[C@](C)(O)CC[C@@H]5[C@H]4CC[C@]23C)c1 [SA-6] | A (<15 min) | 0.01 to 0.05 | – | –
3 | C[C@@]1(O)CC[C@H]2[C@H](CC[C@@H]3[C@@H]2CC[C@]2(C)[C@@H](C(=O)Cn4cccn4)CC[C@@H]32)C1 [SA-13] | – | 0.01 to 0.05 | – | B (IP) (≥3 mpk)
